# Data reported in patent US20230346948A1, “Lipid conjugated peptide inhibitors of PICK1” (University of Copenhagen, priority 2020, published 2023).
# Like-named read-outs stand apart in the source and are kept apart here.
# Assays:
# [1] = test system: neuropathic pain (SNI model); test: Spared Nerve Injury (SNI) model of neuropathic pain, von Frey; format: in vivo, mice; details: for relief of evoked pain (paw withdrawal threshold): day 7 after SNI, tested 1-6 h
# Description: Neuropathic pain. The SNI pain experiment was performed by Phenotype Expertise-Pain and CNS behaviour CRO under supervision of […]). Study was performed on 8 weeks old […] male mice (Charles River). The spared nerve injury surgery was performed on anaesthetized mice. Ligature and transection of the common peroneal and tibial distal branches of the sciatic nerve was performed, leaving the sural branch intact. […] The experimenter was blinded to mice treatment. […] All the compounds were diluted in PBS and administered s.c. at 10 μL/g. Statistical analysis was performed using GraphPad Prism 6.0. Two-way RM ANOVA followed by Bonferroni's post-hoc test. Significance level set to p<0.05. Neuropathic pain. Study was performed on 8 weeks old […] male mice (Charles River). The spared nerve injury surgery was performed on anaesthetized mice. Ligature and transection of the common peroneal and tibial distal branches of the sciatic nerve was performed, leaving the sural branch intact. […] The experimenter was blinded to mice treatment. […] All the compounds were diluted in PBS and administered 10 μmol/kg (10 μL/gram) […]. at 10 μL/g. Statistical analysis was performed using GraphPad Prism 6.0. Two-way RM ANOVA followed by Bonferroni's post-hoc test. Significance level set to p<0.05. Neuropathic pain. Study was performed on 8 weeks old […] male mice (Charles River). The spared nerve injury surgery was performed on anaesthetized mice. Ligature and transection of the common peroneal and tibial distal branches of the sciatic nerve was performed, leaving the sural branch intact. […] The mice were testes in von Frey monthly and the hyperalgesic response at 52 weeks was sustained. […] The experimenter was blinded to mice treatment. After injection, mechanical threshold was measured, 2 and 5 hrs. All the compounds were diluted in PBS and administered s.c. at 10 μL/g, 30 μmol/kg. Statistical analysis was performed using GraphPad Prism 6.0.
# [2] = Small angle X-ray scattering, self-assembly in solution; format: physicochemical
# Description: Concentration series of […] ranging from 0.18 mg/ml to 9.37 mg/mL was prepared in buffer containing 50 mM Tris (pH 7.4), 125 mM NaCl. Samples were measured at the P12 SAXS Beamline, […], Hamburg, Germany. Preliminary data reduction including radial averaging and conversion of the data into absolute scaled scattering intensity, I(q), as a function of the scattering vector q, where q=4π sin(θ)/λ ([…]=half scattering angle) were done using the standard procedures at the beamline. The modelling of the SAXS data was performed in two ways, firstly using the pair distance distribution function and subsequently using a molecular constrained core-shell model for polydisperse spheres. In brief, it was assumed that the peptide aggregated into polydisperse spherical micelles. Here, the hydrophobic tails form the core and these are surrounded by the hydrophilic part (the shell) in a spherical micelle. […] This was calculated by counting the number of electrons in the molecular structure and multiplying by the scattering length of the electron. For the scattering length density calculations, it was assumed that the molecular volume of the C13 alkyl chain was 377 Å3 as estimated from Tanfords empirical formula (V=27.4+26.9nC) where nC denote the number of carbons. i.e. 13 in this case. The hydrophilic headgroup was as a first estimate assumed to have a mass density corresponding to that of a soluble protein (i.e. 1.35 g/cm^3), this yielded a molecular volume of 2078 Å3. […] Excess scattering length densities were then calculated in relation to water (9.4e101/cm^2). Using this molecular restrained model, the volumes of the core and of the shell were coupled internally through the fitted aggregation number, Nagg. The polydispersity was described by a Gauss function of Nagg. The Gauss was truncated at ±3sigma. The model module “[…]” from the […] software was used for the fitting. As usual a small surface roughness and a small constant background was also necessary for the model to converge. Scattering data was merged; buffer subtracted and binned using WillItRebin with a binning factor of 1.02. The pair distance distribution functions (pddf) were fitted using bayesapp (http://www.bayesapp.org/) in the interval [0.0122-0.4] Å^-1, fitting parameters are reported in the data collection table below.
# [3] = test system: diabetic neuropathy (STZ model); details: for maximum reversal of mechanical response threshold: 2 h post-administration
# Description: Diabetic neuropathy (STZ) model. Diabetes is induced by a single IP injection of […]. Streptozocin solution (100 μl/10 g, Sigma-aldrich S0130, batch #WXBB7152V). Glycemia is tested before, and 7 days after injection.
# The mechanical threshold response of the operated mice was measured with calibrated von Frey filaments (“up/down” method) and the 50% threshold (g) was calculated. The experimenter was blinded to mice treatment. […] Compounds were diluted in PBS (vehicle) and administered s.c. at 10 μL/g, in doses as indicated (gabapentine, 5MPK). Statistical analysis was performed using GraphPad Prism 6.0.
# [4] = Size exclusion chromatography, self-assembly in solution; format: physicochemical; details: Superdex200 Increase 10/300
# Description: Size exclusion chromatography: Size exclusion chromatography was done using an Äkta purifier with a Superdex200 Increase 10/300 column, where 500 μL of […] or […] at the indicated concentration was injected onto the column. Absorbance profile was measured at 280 nm and plotted against elution volume using Graph Pad Prism 8.3.
# [5] = pair distance distribution function analysis
smiles,measurement,setting,value
CCCCCCCCCCCCCC(=O)N(CCOCCOCCC(=O)N[C@@H](Cc1c[nH]cn1)C(=O)N[C@@H](Cc1c[nH]c2ccccc12)C(=O)N[C@@H](CC(C)C)C(=O)N[C@@H](CCCCN)C(=O)N[C@H](C(=O)O)C(C)C)CCOCCOCCC(=O)N[C@@H](Cc1c[nH]cn1)C(=O)N[C@@H](Cc1c[nH]c2ccccc12)C(=O)N[C@@H](CC(C)C)C(=O)N[C@@H](CCCCN)C(=O)N[C@H](C(=O)O)C(C)C [myr-NPEG4-(HWLKV)2],paw withdrawal threshold of uninjured contralateral paw,"[1]; SNI model, Example 8",remained unaltered
same,relief of evoked pain (paw withdrawal threshold),[1]; s.c. 2 μmol/kg,no significant pain relief
same,relief of evoked pain (paw withdrawal threshold),[1]; s.c. 10 μmol/kg,significant pain relief up to 3 hours post injection
same,"relief of evoked pain (paw withdrawal threshold), chronic pain","[1]; s.c. 30 μmol/kg, 52 weeks after SNI, tested 2 and 5 h",highly significant effect of the treatment at 5 hrs
same,"n myr-NPEG4-(HWLKV)2, core shell model",[2]; 300 μM,19
same,"n myr-NPEG4-(HWLKV)2, core shell model",[2]; 400 μM,22
same,"n myr-NPEG4-(HWLKV)2, core shell model",[2]; 1000 μM,22
same,"n myr-NPEG4-(HWLKV)2, core shell model",[2]; 3000 μM,21
same,"n myr-NPEG4-(HWLKV)2, core shell model",[2]; 5000 μM,19
same,number of individual molecules per micelle,[2]; core-shell model,19-22
same,outer radius of spherical core-shell micelle,[2]; core-shell model,20-24 Å
same,number of individual molecules per assembly,[2]; [5],5-8
same,radius of gyration (Rg) of micellar structures,[2]; [5],20-23.6 Å
same,analgesic effect,[3]; s.c. 2 μmol/kg,weaker effect
same,maximum reversal of mechanical response threshold,[3]; s.c. 2 μmol/kg,49.2±7.9 % of baseline
same,analgesic effect,[3]; s.c. 10 μmol/kg,strong and long-lasting effect up to 4 h
same,maximum reversal of mechanical response threshold,[3]; s.c. 10 μmol/kg,67.3±4.5 % of baseline
same,SEC elution compared with unconjugated NPEG4-(HWLKV)2,[4],eluted at lower elution volume
